This is an account of results in PubChem BioAssay (NCI).

Some test systems named below: 786-0 renal; HCT-15 colon; HL-60(TB) leukemia; HOP-92 NSCLC; MALME-3M melanoma; NCI-H522 lung; OVCAR-8 ovarian; RPMI-8226 leukemia; SF-295 CNS; SF-539 CNS; TK-10 renal; SF-268 CNS.
Test in all cases: inhibition of tumour cell growth, NCI panel, 48 h

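Interpolation was linear, between the two tested concentrations surrounding the appropriate level; five concentrations were tested over 48 hours in 96-well plates. Definition used: TGI = concentration required for complete inhibition of growth.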 A value given as a limit tells only on which side of the number the result lay.

With `COc1ccc(S(=O)(=O)N2C(=O)CCC2C(=O)NC(N)=O)cc1` (centres undefined), the TGI with 786-0 renal, in the experiment with HCT-15 colon, with HL-60(TB) leukemia, with HOP-92 NSCLC, in the experiment with MALME-3M melanoma and in the experiment with NCI-H522 lung was over 100 µM each time. In addition, the TGI in the experiment with OVCAR-8 ovarian, in the experiment on RPMI-8226 leukemia, with SF-295 CNS, in the experiment on SF-539 CNS and in the experiment with TK-10 renal was over 100 µM throughout.
Turning to `CSc1ncnc2c1ncn2CCC(=O)O`, the TGI in the experiment on 786-0 renal, in the experiment with HL-60(TB) leukemia, in the experiment with HOP-92 NSCLC, in the experiment on MALME-3M melanoma, in the experiment on NCI-H522 lung and in the experiment on OVCAR-8 ovarian was over 100 µM in each case. Also, the TGI with RPMI-8226 leukemia, in the experiment on SF-268 CNS, in the experiment on SF-295 CNS, with SF-539 CNS and in the experiment on TK-10 renal was over 100 µM throughout.
As for `COc1ccc(C2SC(N)=Nc3c2c(C)nn3C(=O)c2ccccc2O)cc1OC` (centres undefined), the TGI is over 10 µM in the experiment with 786-0 renal; over 10 µM in the experiment with HCT-15 colon; over 10 µM in the experiment with HL-60(TB) leukemia; 4.36 µM in the experiment on HOP-92 NSCLC; over 10 µM with MALME-3M melanoma; over 10 µM in the experiment on RPMI-8226 leukemia. For the same molecule, the TGI with SF-268 CNS, in the experiment with SF-295 CNS, with SF-539 CNS and in the experiment on TK-10 renal was over 10 µM throughout.
In the case of `CC(=O)OCCn1cnc2c(NCC=C(C)C)ncnc21`, the TGI in the experiment on 786-0 renal, in the experiment on HL-60(TB) leukemia, in the experiment with HOP-92 NSCLC, in the experiment on MALME-3M melanoma, with NCI-H522 lung and with OVCAR-8 ovarian was over 100 µM in each case. Moreover, the TGI in the experiment with RPMI-8226 leukemia, with SF-268 CNS, with SF-295 CNS, with SF-539 CNS and in the experiment with TK-10 renal was over 100 µM in each case.
For the molecule `O=C(Nc1ccccc1)c1cc(S(=O)(=O)Nc2n[nH]c(=O)n2-c2ccccc2)c(S)cc1Cl`, the TGI in the experiment on 786-0 renal, in the experiment with HCT-15 colon, with HL-60(TB) leukemia, in the experiment with HOP-92 NSCLC, with MALME-3M melanoma and in the experiment on NCI-H522 lung was over 100 µM each time. Besides, the TGI in the experiment on OVCAR-8 ovarian, in the experiment with RPMI-8226 leukemia, with SF-268 CNS, in the experiment on SF-539 CNS and in the experiment on TK-10 renal was over 100 µM each time.
Turning to `CCOC(=O)C(C(=O)OCC)=C1SC(=Nc2ccccc2)C(=Nc2ccccc2)N1c1ccccc1`, the TGI in the experiment on 786-0 renal, in the experiment on HCT-15 colon, with HL-60(TB) leukemia, in the experiment with HOP-92 NSCLC, with MALME-3M melanoma and with NCI-H522 lung was over 100 µM in each case. The TGI in the experiment on OVCAR-8 ovarian, in the experiment with RPMI-8226 leukemia, in the experiment on SF-268 CNS, in the experiment with SF-295 CNS and in the experiment on SF-539 CNS was over 100 µM throughout.
On to `CCOC(=O)C1(C#N)OC(=O)c2cnccc21` (centres undefined), for which the TGI with 786-0 renal, with HCT-15 colon, with HL-60(TB) leukemia, with HOP-92 NSCLC, with MALME-3M melanoma and in the experiment with NCI-H522 lung was over 100 µM each time. In addition, the TGI in the experiment on OVCAR-8 ovarian, in the experiment with RPMI-8226 leukemia, in the experiment on SF-268 CNS, in the experiment with SF-295 CNS and in the experiment on SF-539 CNS was over 100 µM throughout.
As to `COc1cc2c(cc1OC)OC(c1c(OC)ccc(OC)c1O)CC2` (centres undefined), the TGI in the experiment with 786-0 renal is over 100 µM; in the experiment with HCT-15 colon, over 100 µM; in the experiment with HL-60(TB) leukemia, 69.4 µM; with HOP-92 NSCLC, over 100 µM; in the experiment on MALME-3M melanoma it was over 100 µM; in the experiment with OVCAR-8 ovarian, over 100 µM. For the same molecule, the TGI in the experiment on RPMI-8226 leukemia, in the experiment on SF-268 CNS, with SF-295 CNS, in the experiment on SF-539 CNS and in the experiment with TK-10 renal was over 100 µM in each case.
Consider `CC(C)CC(NC(=O)C(C)(CI)Cc1ccccc1)C(=O)Nc1ccccc1` (centres undefined), for which the TGI in the experiment with 786-0 renal, with HCT-15 colon, in the experiment with HL-60(TB) leukemia, with HOP-92 NSCLC, in the experiment on MALME-3M melanoma and with NCI-H522 lung was over 100 µM in each case. The TGI in the experiment with OVCAR-8 ovarian, with RPMI-8226 leukemia, in the experiment with SF-295 CNS, in the experiment on SF-539 CNS and in the experiment with TK-10 renal was over 100 µM in each case.
As for `c1csc(-c2nn3c(C45CC6CC(CC(C6)C4)C5)nnc3s2)c1`, the TGI with 786-0 renal, with HCT-15 colon, in the experiment with HL-60(TB) leukemia, in the experiment on HOP-92 NSCLC, with MALME-3M melanoma and in the experiment on NCI-H522 lung was over 100 µM in each case. Also, the TGI with OVCAR-8 ovarian, in the experiment with RPMI-8226 leukemia, in the experiment on SF-268 CNS, in the experiment on SF-295 CNS and in the experiment with SF-539 CNS was over 100 µM in each case.
